Reference: patent US20110306606A1, “NOVEL 2,6-SUBSTITUTED-3-NITROPYRIDINE DERIVATIVE, METHOD FOR PREPARING SAME, AND PHARMACEUTICAL COMPOSITION INCLUDING SAME” (priority 2008, published 2011)
Like-named read-outs stand apart in the source and are kept apart here.

Legend:
[1] = tested on: Osteoblasts (Calvarial cells); assay: Alkaline phosphatase (ALP) activity in osteoblasts (Calvarial cells); format: cell-based, mice; conditions: Mus musculus, 72 h; 1 μM compound, 3 days, Calvarial cell; read-out: ALP activity (1 μM, % of Control) Calvarial cell
Method: Differentiation and activity of osteoblasts were indirectly evaluated by measuring an ALP activity having a close relationship with osteogenesis.
Osteoblasts (Calvarial cells) prepared in Experimental Example 1 and MC3T3-E1 cells (available from RIKEN Cell Bank, Japan) were collected in α-MEM supplemented with 10% FBS, followed by cell counting. The cells were dispensed into 24-well cultureware at a density of 2×10^4 cells/well. After culturing of the cells for 24 hours, the culture media were discarded and replaced with fresh media in which test compounds were diluted to a concentration of 1 μM (1 mL/well). In addition, the vehicle control group containing 0.1% DMSO was also treated. […] When the experiment was terminated, the supernatant was removed and the cells were washed three times with cold phosphate buffer at 4°. 0.2% Triton X-100 was added to the washed cells which were then subjected to three cycles of freezing at −70° and thawing at room temperature for the complete lysis of cells. The cell extracts were pooled and centrifuged to collect the cell supernatant which was used for the measurement of ALP activity and proteins. The protein concentration was measured using a BCA assay kit (manufactured by Sigma-Aldrich). For the measurement of ALP activity, p-nitrophenylphosphate was added to the cell supernatant which was then incubated at 37° for 30 minutes, and the reaction was terminated with the addition of 50 μL of 0.2N sodium hydroxide. The standard curve was plotted at the absorbance of 405 nm using p-nitrophenol as a standard material and then the absorbance of test materials thus reacted was measured to determine the production amount of p-nitrophenol.
The ALP activity was calculated by dividing the amount of p-nitrophenol produced from each test material by the protein amount and the reaction time. Therefore, the unit of ALP activity was given in terms of p-nitrophenol/μg protein/min. The results are given in Tables 28-1 and 28-2 where the ALP activity unit of each test material was given in terms of % change through the comparison between the individual test materials and the vehicle control group.

[2] = tested on: Osteoblasts (Calvarial cells); conditions: ICR, mouse, 72 h, 1 μM
[3] = tested on: formation of osteoclasts in co-culture of bone marrow cells and osteoblasts; assay: Osteoclastogenesis inhibition via co-culture system (TRAP staining); format: cell-based, mice; conditions: 1 μM compound, 7 days co-culture, TRAP-positive multinucleated osteoclasts vs vehicle control
Method: Osteoclastogenesis inhibitory effects of the compounds of the present invention were evaluated via a co-culture system (Reference: Endocrinology 137(1996), 2187 to 2190, E. Jimi et al.). A specific experimental method is as follows.
1) Preparation of Bone Marrow Cells and Osteoblasts
Femora and tibia were aseptically dissected from 6 to 8-week-old male ddY mice to harvest bone marrow cells by a conventional method using a syringe. In brief, tissues were removed from the dissected bone, the bone ends were cut off with scissors, and the bone marrow was isolated by pushing a medium-containing syringe (23G) against the one end of the cut bone. The isolated bone marrow was subjected to repeated piston movement of a syringe such that single cells were obtained (Reference: Endocrinology 123(1988), 2600 to 2602, Takahashi et al.). After removal of red blood cells within the bone marrow, the bone marrow cells recovered by centrifugation were placed in an α-MEM supplemented with 10% fetal bovine serum (FBS), followed by counting of nucleated cells and then were immediately used for a co-culture system.
2) Osteoclastogenesis Inhibition Experiment Via Co-Culture System
As the medium used for a co-culture system, a differentiation medium with the addition of differentiation factors 1α,25-dihydroxyvitamin D3 (10^−8M) and dexamethasone (10^−8M) to a-MEM supplemented with 10% FBS was used for the induction of osteoclastogenesis. First, the compounds dissolved in dimethyl sulfoxide (DMSO) at a concentration of 1 mM were diluted to 2 μM using the above-mentioned differentiation medium. As a vehicle control group, 0.2% (v/v) DMSO was added to the medium. 100 μL/well of each medium was added to 96-well plates. In addition, the above prepared bone marrow cells and osteoblasts were plated onto 96-well plates at a density of 1×10^5 cells/50 μL/well and 3×10^3 cells/50 μL/well, respectively. The total volume/well was 200 μL and the final compound concentration was 1 μM. The control group was 0.1% DMSO. The cells were cultured with exchange of the culture media with fresh media containing differentiation factors and test materials at an interval of 2 to 3 days.
7 days after culturing of cells, the formation of multinucleated osteoclasts was confirmed by microscopic examination, the medium was removed from the wells and then the cells were fixed in a 10% phosphate-buffered formalin solution. The degree of formation of mature osteoclasts was measured taking advantage of the characteristics of osteoclasts showing a positive reaction to a tartrate-resistant acid phosphatase (TRAP) staining solution. The TRAP staining solution was prepared in a manner such that naphthol AS-MS phosphate as a substrate and a coloring agent (Fast Red Violet LB salt) were dissolved in N,N-dimethylformamide, and a 0.1N NaHCO3 buffer solution containing 50 mM of tartaric acid was added thereto. Among the TRAP-positive cells under a light microscope, multinucleated osteoclasts having 6 to 7 nuclei were regarded as mature osteoclasts.
The degree of inhibition of osteoclastogenesis was calculated according to the following equation 1. The results are summarized in Table 27 below (Experiments were carried out for 4 wells/experimental group (n=4), and the results are given in terms of mean±standard deviation)
Inhibition of osteoclastogenesis(%)=(1−numbers of osteoclasts observed in experimental group/numbers of osteoclasts observed in vehicle control group)×100(%) [Equation 1]

[4] = tested on: Osteoblasts (Calvarial cells); assay: Cytotoxicity test (MTT); conditions: 1 μM compound, 72 hours, in comparison with vehicle control

| Compound | activity at 1 µM [1] | Cell viability (%) Calvarial cell [2] | Osteoclastogenesis inhibition (%) 1 μM [3] | Cell viability (%) Calvarial cell [4] |
| --- | --- | --- | --- | --- |
| Nc1cccc(Nc2nc(N3CCC(N)CC3)ccc2[N+](=O)[O-])c1 [Compound 79, 2-[3-(amino)phenylamino]-6-(4-aminopiperidino)-3-nitropyridine] | 133% | 99% | – | – |
| Nc1cccc(Nc2nc(NCc3cccnc3)ccc2[N+](=O)[O-])c1 [Compound 80, 2-[3-(amino)phenylamino]-6-[(3-pyridyl)methylamino]-3-nitropyridine] | 116% | 102% | – | – |
| Nc1cccc(Nc2nc(NCc3ccncc3)ccc2[N+](=O)[O-])c1 [Compound 81, 2-[3-(amino)phenylamino]-6-[(4-pyridyl)methylamino]-3-nitropyridine] | 123% | 100% | – | – |
| CNc1ccc([N+](=O)[O-])c(Nc2ccc(-n3ccnc3)cc2)n1 [Compound 86, 2-[4-(imidazol-1-yl)phenylamino]-6-(methylamino)-3-nitropyridine] | 144% | 111% | – | – |
| CC(C)Nc1ccc([N+](=O)[O-])c(Nc2ccc(-n3ccnc3)cc2)n1 [Compound 87, 2-[4-(imidazol-1-yl)phenylamino]-6-(isopropylamino)-3-nitropyridine] | 116% | 101% | – | – |
| CN(CC1OCCO1)c1ccc([N+](=O)[O-])c(Nc2ccc(-n3ccnc3)cc2)n1 [Compound 89] | – | – | 73% | 89% |
| O=[N+]([O-])c1ccc(N2CCC(O)CC2)nc1Nc1ccc(-n2ccnc2)cc1 [Compound 90, 2-[4-(imidazol-1-yl)phenylamino]-6-(4-hydroxypiperidino)-3-nitropyridine] | 161% | 106% | – | – |
| CC(=O)c1cccc(Nc2nc(N3CCC(O)CC3)ccc2[N+](=O)[O-])c1 [Compound 99, 2-(3-acetylphenylamino)-6-(4-hydroxypiperidino)-3-nitropyridine] | 189% | 104% | – | – |
| CC(=O)c1cccc(Nc2nc(NC(C)(C)C)ccc2[N+](=O)[O-])c1 [Compound 104, 2-(3-acetylphenylamino)-6-(t-butylamino)-3-nitropyridine] | 112% | 97% | – | – |
| CC(=O)c1cccc(Nc2nc(N3CCN(C)CC3)ccc2[N+](=O)[O-])c1 [Compound 105, 2-(3-acetylphenylamino)-6-(4-methylpiperazin-1-yl)-3-nitropyridine] | 121% | 90% | – | – |
| CC(=O)c1cccc(Nc2nc(N3CCOCC3)ccc2[N+](=O)[O-])c1 [Compound 107, 2-(3-acetylphenylamino)-6-morpholino-3-nitropyridine] | 121% | 97% | – | – |
| CC(C)CNc1ccc([N+](=O)[O-])c(Nc2ccc(N3CCOCC3)cc2)n1 [Compound 110, 2-(4-morpholinophenylamino)-6-(isobutylamino)-3-nitropyridine] | 143% | 112% | – | – |
| Cc1nc(-c2ccc(Nc3nc(NC(C)C)ccc3[N+](=O)[O-])cc2)cs1 [Compound 133, 2-[4-(2-methylthiazol-4-yl)phenylamino]-6-(isopropylamino)-3-nitropyridine] | 122% | 102% | – | – |
| Cc1nc(-c2ccc(Nc3nc(-n4ccnc4C(C)C)ccc3[N+](=O)[O-])cc2)cs1 [Compound 137, 2-[4-(2-methylthiazol-4-yl)phenylamino]-6-[(2-isopropyl)imidazol-1-yl]-3-nitropyridine] | 122% | 92% | – | – |
| Cc1nc(-c2ccc(Nc3nc(NC(C)(C)C)ccc3[N+](=O)[O-])cc2)cs1 [Compound 140, 2-[4-(2-methylthiazol-4-yl)phenylamino]-6-(t-butylamino)-3-nitropyridine] | 118% | 102% | – | – |
| NC1CCN(c2ccc([N+](=O)[O-])c(Nc3ccc(-c4csc(C5CCCCC5)n4)cc3)n2)CC1 [Compound 161, 2-[4-(2-cyclohexylthiazol-4-yl)phenylamino]-6-(4-aminopiperidino)-3-nitropyridine] | 121% | 98% | – | – |
| CCN(CC)c1ccc(Nc2nc(NCC(C)C)ccc2[N+](=O)[O-])cc1F [Compound 177, 2-[(3-fluoro-4-diethylamino)phenylamino]-6-(isobutylamino)-3-nitropyridine] | – | – | 61% | 107% |
| O=[N+]([O-])c1ccc(NCc2cccnc2)nc1Nc1ccc(N2CCOCC2)c(F)c1 [Compound 197, 2-[(3-fluoro-4-morpholino)phenylamino]-6-[(3-pyridyl)methylamino]-3-nitropyridine] | – | – | 81% | 95% |
| O=[N+]([O-])c1ccc(NCc2ccncc2)nc1Nc1ccc(N2CCOCC2)c(F)c1 [Compound 198, 2-[(3-fluoro-4-morpholino)phenylamino]-6-[(4-pyridyl)methylamino]-3-nitropyridine] | – | – | 84% | 96% |
| NC1CCN(c2ccc([N+](=O)[O-])c(Nc3ccc(N4CCOCC4)c(F)c3)n2)CC1 [Compound 202, 2-[(3-fluoro-4-morpholino)phenylamino]-6-(4-aminopiperidino)-3-nitropyridine] | – | – | 90% | 96% |
| O=[N+]([O-])c1ccc(NCc2cccnc2)nc1Nc1ccc(N2CCSCC2)c(F)c1 [Compound 209, 2-[(3-fluoro-4-thiomorpholino)phenylamino]-6-[(3-pyridyl)methylamino]-3-nitropyridine] | – | – | 85% | 99% |
| O=[N+]([O-])c1ccc(NCc2ccncc2)nc1Nc1ccc(N2CCSCC2)c(F)c1 [Compound 210, 2-[(3-fluoro-4-thiomorpholino)phenylamino]-6-[(4-pyridyl)methylamino]-3-nitropyridine] | – | – | 70% | 105% |
| CN1CCN(c2ccc([N+](=O)[O-])c(Nc3ccc(N4CCSCC4)c(F)c3)n2)CC1 [Compound 212, 2-[(3-fluoro-4-thiomorpholino)phenylamino]-6-(4-methylpiperazin-1-yl)-3-nitropyridine] | – | – | 85% | 100% |
